Experimental data taken from patent US4068070A, “α-Cyanoamine compounds and a process for producing the same” (Fuji Chemical Industry Co., Ltd., priority 1974, dated 1978).

What was measured:
Format in all cases: in vivo, mongrel adult dogs
coronary sinus out flow = assay: Effects on coronary sinus out flow
Protocol: (§1) All experiments were made on male and female thoractomized mongrel adult dogs weighing about 10 kg. under anesthesia with pentobarbital sodium. Compounds A, D, E and F were suspended in 0.2% CMC solution, Compound B dissolved in hydrochloric acid solution (pH 6), and Compound C and active placebo being dissolved in physiological saline solution. Animals were administered the drug intravenously on brachiuma with either test compound or active placebo.
(§2) Arterial blood pressure was measured by pressure transducer (Nippon Koden MPU-0.5) connected with the cannula inserted from exposed carotid artery into aorta. Aortic blood flow was determined by means of electromagnetic flow meter (Nippon Koden MF-5) mounted at the origin of the aorta. Coronary sinus out flow and coronary sinus oxygen tension were assessed by means of electromagnetic flow meter (Nippon Koden MF-5) and P02 macro electrode (Beokmann Moder 160-C), respectively using Morawitz cannulization technique. Heart rate was measured by cardiotachometer (Nippon Koden RT-2) synchronized with systolic blood pressure of aorta.

[1] = test system: arterial mean blood pressure; assay: Effects on arterial mean blood pressure
Protocol: as §1, §2

[2] = test system: coronary sinus oxygen tension; assay: Effects on coronary sinus oxygen tension
Protocol: as §1, §2

heart rate = assay: Effects on heart rate
Protocol: as §1, §2

aortic blood flow = assay: Effects on aortic blood flow
Protocol: as §1, §2

CCOC(=O)CN1CCN(C(C#N)c2ccc(OC)c(OC)c2)CC1 (centres unmarked) [Compound B]
Changes(%) of basal values, coronary sinus out flow (coronary sinus out flow; 0.2 mg/kg i.v., 1 min): +4.9% | Changes(%) of basal values, coronary sinus out flow (coronary sinus out flow; 0.2 mg/kg i.v., 5 min): +0.7% | Changes(%) of basal values, coronary sinus out flow (coronary sinus out flow; 0.2 mg/kg i.v., 10 min): 0% | Changes(%) of basal values, coronary sinus out flow (coronary sinus out flow; 0.2 mg/kg i.v., 20 min): -0.3% | Changes(%) of basal values, coronary sinus out flow (coronary sinus out flow; 0.2 mg/kg i.v., 30 min): 0% | Changes(%) of basal values, coronary sinus out flow (coronary sinus out flow; 0.2 mg/kg i.v., 40 min): 0% | Changes(%) of basal values, coronary sinus out flow (coronary sinus out flow; 0.2 mg/kg i.v., imm.): +18.0% | Changes(%) of basal values, coronary sinus out flow (coronary sinus out flow; 0.6 mg/kg i.v., 1 min): +30.7% | Changes(%) of basal values, coronary sinus out flow (coronary sinus out flow; 0.6 mg/kg i.v., 5 min): +0.9% | Changes(%) of basal values, coronary sinus out flow (coronary sinus out flow; 0.6 mg/kg i.v., 10 min): -0.7% | Changes(%) of basal values, coronary sinus out flow (coronary sinus out flow; 0.6 mg/kg i.v., 20 min): -0.2% | Changes(%) of basal values, coronary sinus out flow (coronary sinus out flow; 0.6 mg/kg i.v., 30 min): 0% | Changes(%) of basal values, coronary sinus out flow (coronary sinus out flow; 0.6 mg/kg i.v., 40 min): 0% | Changes(%) of basal values, coronary sinus out flow (coronary sinus out flow; 0.6 mg/kg i.v., imm.): +39.5% | Changes(%) of basal values, coronary sinus out flow (coronary sinus out flow; 2.0 mg/kg i.v., 1 min): +47.4% | Changes(%) of basal values, coronary sinus out flow (coronary sinus out flow; 2.0 mg/kg i.v., 5 min): +8.2% | Changes(%) of basal values, coronary sinus out flow (coronary sinus out flow; 2.0 mg/kg i.v., 10 min): +5.9% | Changes(%) of basal values, coronary sinus out flow (coronary sinus out flow; 2.0 mg/kg i.v., 20 min): +3.2% | Changes(%) of basal values, coronary sinus out flow (coronary sinus out flow; 2.0 mg/kg i.v., 30 min): +1.5% | Changes(%) of basal values, coronary sinus out flow (coronary sinus out flow; 2.0 mg/kg i.v., 40 min): 0% | Changes(%) of basal values, coronary sinus out flow (coronary sinus out flow; 2.0 mg/kg i.v., imm.): +55.1% | Effects on coronary sinus out flow (in words) (coronary sinus out flow; i.v., anesthetized dogs): a marked increasing effect on coronary sinus out flow, which was proportioned to doses thereof and of long duration | Changes (%) of basal values, arterial mean blood pressure ([1]; 0.2 mg/kg i.v., 1 min): +4.8% | Changes (%) of basal values, arterial mean blood pressure ([1]; 0.2 mg/kg i.v., 5 min): +0.4% | Changes (%) of basal values, arterial mean blood pressure ([1]; 0.2 mg/kg i.v., 10 min): +0.1% | Changes (%) of basal values, arterial mean blood pressure ([1]; 0.2 mg/kg i.v., 20 min): -0.1% | Changes (%) of basal values, arterial mean blood pressure ([1]; 0.2 mg/kg i.v., 30 min): 0% | Changes (%) of basal values, arterial mean blood pressure ([1]; 0.2 mg/kg i.v., 40 min): 0% | Changes (%) of basal values, arterial mean blood pressure ([1]; 0.2 mg/kg i.v., imm.): -5.0% | Changes (%) of basal values, arterial mean blood pressure ([1]; 0.6 mg/kg i.v., 1 min): +6.2% | Changes (%) of basal values, arterial mean blood pressure ([1]; 0.6 mg/kg i.v., 5 min): +0.1% | Changes (%) of basal values, arterial mean blood pressure ([1]; 0.6 mg/kg i.v., 10 min): -0.3% | Changes (%) of basal values, arterial mean blood pressure ([1]; 0.6 mg/kg i.v., 20 min): 0% | Changes (%) of basal values, arterial mean blood pressure ([1]; 0.6 mg/kg i.v., 30 min): 0% | Changes (%) of basal values, arterial mean blood pressure ([1]; 0.6 mg/kg i.v., 40 min): 0% | Changes (%) of basal values, arterial mean blood pressure ([1]; 0.6 mg/kg i.v., imm.): -14.4% | Changes (%) of basal values, arterial mean blood pressure ([1]; 3.0 mg/kg i.v., 1 min): +7.0% | Changes (%) of basal values, arterial mean blood pressure ([1]; 3.0 mg/kg i.v., 5 min): +2.5% | Changes (%) of basal values, arterial mean blood pressure ([1]; 3.0 mg/kg i.v., 10 min): +0.4% | Changes (%) of basal values, arterial mean blood pressure ([1]; 3.0 mg/kg i.v., 20 min): -1.0% | Changes (%) of basal values, arterial mean blood pressure ([1]; 3.0 mg/kg i.v., 30 min): -0.5% | Changes (%) of basal values, arterial mean blood pressure ([1]; 3.0 mg/kg i.v., 40 min): 0% | Changes (%) of basal values, arterial mean blood pressure ([1]; 3.0 mg/kg i.v., imm.): -16.2% | Effects on arterial mean blood pressure (in words) ([1]; i.v., anesthetized dogs): transitory hypotensive effect immediately after administration, and thereafter increased blood pressure which was then, from 10 minutes after medication, returned to the level before treatment | Changes(%) of basal values, coronary sinus oxygen tension ([2]; 0.2 mg/kg i.v., 1 min): +11.3% | Changes(%) of basal values, coronary sinus oxygen tension ([2]; 0.2 mg/kg i.v., 5 min): +1.0% | Changes(%) of basal values, coronary sinus oxygen tension ([2]; 0.2 mg/kg i.v., 10 min): -2.0% | Changes(%) of basal values, coronary sinus oxygen tension ([2]; 0.2 mg/kg i.v., 20 min): -0.5% | Changes(%) of basal values, coronary sinus oxygen tension ([2]; 0.2 mg/kg i.v., 30 min): 0% | Changes(%) of basal values, coronary sinus oxygen tension ([2]; 0.2 mg/kg i.v., 40 min): 0% | Changes(%) of basal values, coronary sinus oxygen tension ([2]; 0.2 mg/kg i.v., imm.): +25.5% | Changes(%) of basal values, coronary sinus oxygen tension ([2]; 0.6 mg/kg i.v., 1 min): +46.4% | Changes(%) of basal values, coronary sinus oxygen tension ([2]; 0.6 mg/kg i.v., 5 min): +8.9% | Changes(%) of basal values, coronary sinus oxygen tension ([2]; 0.6 mg/kg i.v., 10 min): -3.2% | Changes(%) of basal values, coronary sinus oxygen tension ([2]; 0.6 mg/kg i.v., 20 min): -0.9% | Changes(%) of basal values, coronary sinus oxygen tension ([2]; 0.6 mg/kg i.v., 30 min): 0% | Changes(%) of basal values, coronary sinus oxygen tension ([2]; 0.6 mg/kg i.v., 40 min): 0% | Changes(%) of basal values, coronary sinus oxygen tension ([2]; 0.6 mg/kg i.v., imm.): +68.4% | Changes(%) of basal values, coronary sinus oxygen tension ([2]; 2.0 mg/kg i.v., 1 min): +70.9% | Changes(%) of basal values, coronary sinus oxygen tension ([2]; 2.0 mg/kg i.v., 5 min): +26.7% | Changes(%) of basal values, coronary sinus oxygen tension ([2]; 2.0 mg/kg i.v., 10 min): +8.0% | Changes(%) of basal values, coronary sinus oxygen tension ([2]; 2.0 mg/kg i.v., 20 min): +3.0% | Changes(%) of basal values, coronary sinus oxygen tension ([2]; 2.0 mg/kg i.v., 30 min): +0.8% | Changes(%) of basal values, coronary sinus oxygen tension ([2]; 2.0 mg/kg i.v., 40 min): 0% | Changes(%) of basal values, coronary sinus oxygen tension ([2]; 2.0 mg/kg i.v., imm.): +80.7% | Effects on coronary sinus oxygen tension (in words) ([2]; i.v., anesthetized dogs): a significant increase in coronary sinus oxygen tension, effect of which was of long duration | Changes(%) of basal values, heart rate (heart rate; 0.2 mg/kg i.v., 1 min): -0.9% | Changes(%) of basal values, heart rate (heart rate; 0.2 mg/kg i.v., 5 min): 0% | Changes(%) of basal values, heart rate (heart rate; 0.2 mg/kg i.v., 10 min): 0% | Changes(%) of basal values, heart rate (heart rate; 0.2 mg/kg i.v., 20 min): 0% | Changes(%) of basal values, heart rate (heart rate; 0.2 mg/kg i.v., 30 min): 0% | Changes(%) of basal values, heart rate (heart rate; 0.2 mg/kg i.v., 40 min): 0% | Changes(%) of basal values, heart rate (heart rate; 0.2 mg/kg i.v., imm.): -2.4% | Changes(%) of basal values, heart rate (heart rate; 0.6 mg/kg i.v., 1 min): +0.6% | Changes(%) of basal values, heart rate (heart rate; 0.6 mg/kg i.v., 5 min): -0.8% | Changes(%) of basal values, heart rate (heart rate; 0.6 mg/kg i.v., 10 min): -0.2% | Changes(%) of basal values, heart rate (heart rate; 0.6 mg/kg i.v., 20 min): 0% | Changes(%) of basal values, heart rate (heart rate; 0.6 mg/kg i.v., 30 min): -0.5% | Changes(%) of basal values, heart rate (heart rate; 0.6 mg/kg i.v., 40 min): 0% | Changes(%) of basal values, heart rate (heart rate; 0.6 mg/kg i.v., imm.): -13.1% | Changes(%) of basal values, heart rate (heart rate; 2.0 mg/kg i.v., 1 min): -2.4% | Changes(%) of basal values, heart rate (heart rate; 2.0 mg/kg i.v., 5 min): -1.5% | Changes(%) of basal values, heart rate (heart rate; 2.0 mg/kg i.v., 10 min): -0.7% | Changes(%) of basal values, heart rate (heart rate; 2.0 mg/kg i.v., 20 min): 0% | Changes(%) of basal values, heart rate (heart rate; 2.0 mg/kg i.v., 30 min): 0% | Changes(%) of basal values, heart rate (heart rate; 2.0 mg/kg i.v., 40 min): 0% | Changes(%) of basal values, heart rate (heart rate; 2.0 mg/kg i.v., imm.): -25.3% | Effects on heart rate (in words) (heart rate; i.v., anesthetized dogs): a slight negative chronotropic effect | Changes (%) of basal values, aortic blood flow (aortic blood flow; 0.2 mg/kg i.v., 1 min): +1.2% | Changes (%) of basal values, aortic blood flow (aortic blood flow; 0.2 mg/kg i.v., 5 min): +0.3% | Changes (%) of basal values, aortic blood flow (aortic blood flow; 0.2 mg/kg i.v., 10 min): -0.1% | Changes (%) of basal values, aortic blood flow (aortic blood flow; 0.2 mg/kg i.v., 20 min): 0% | Changes (%) of basal values, aortic blood flow (aortic blood flow; 0.2 mg/kg i.v., 30 min): 0% | Changes (%) of basal values, aortic blood flow (aortic blood flow; 0.2 mg/kg i.v., 40 min): 0% | Changes (%) of basal values, aortic blood flow (aortic blood flow; 0.2 mg/kg i.v., imm.): +2.5% | Changes (%) of basal values, aortic blood flow (aortic blood flow; 0.6 mg/kg i.v., 1 min): +1.6% | Changes (%) of basal values, aortic blood flow (aortic blood flow; 0.6 mg/kg i.v., 5 min): +2.3% | Changes (%) of basal values, aortic blood flow (aortic blood flow; 0.6 mg/kg i.v., 10 min): 0% | Changes (%) of basal values, aortic blood flow (aortic blood flow; 0.6 mg/kg i.v., 20 min): -1.1% | Changes (%) of basal values, aortic blood flow (aortic blood flow; 0.6 mg/kg i.v., 30 min): -0.7% | Changes (%) of basal values, aortic blood flow (aortic blood flow; 0.6 mg/kg i.v., 40 min): 0% | Changes (%) of basal values, aortic blood flow (aortic blood flow; 0.6 mg/kg i.v., imm.): +4.8% | Changes (%) of basal values, aortic blood flow (aortic blood flow; 2.0 mg/kg i.v., 1 min): +4.3% | Changes (%) of basal values, aortic blood flow (aortic blood flow; 2.0 mg/kg i.v., 5 min): -1.2% | Changes (%) of basal values, aortic blood flow (aortic blood flow; 2.0 mg/kg i.v., 10 min): -2.1% | Changes (%) of basal values, aortic blood flow (aortic blood flow; 2.0 mg/kg i.v., 20 min): -1.8% | Changes (%) of basal values, aortic blood flow (aortic blood flow; 2.0 mg/kg i.v., 30 min): 0% | Changes (%) of basal values, aortic blood flow (aortic blood flow; 2.0 mg/kg i.v., 40 min): 0% | Changes (%) of basal values, aortic blood flow (aortic blood flow; 2.0 mg/kg i.v., imm.): +6.2% | Effects on aortic blood flow (in words) (aortic blood flow; i.v., anesthetized dogs): an increase in blood flow immediately after administration, followed by a decrease in blood flow
